Measured values as given in US20200095296A1, “USE OF PEPTIDES AS BIOMARKERS IN THE DIAGNOSIS, CONFIRMATION AND TREATMENT OF A NEUROLOGICAL DISORDER AND TCR AND/OR HLA IMMUNOPROFILING IN NEURODEGENERATIVE DISEASE” (THE TRUSTEES OF COLUMBIA UNIVERSITY IN THE CITY OF NEW YORK, priority 2017, published 2020).
Where no end group is shown, it is not given here. [ ]: non-standard residue; d: D form. pT = C[C@@H](OP(=O)(O)O)[C@H](N)C(=O)O; pS = N[C@@H](COP(=O)(O)O)C(=O)O

Tested on: PBMC
Assay: IFNg/IL-5 dual ELISPOT after 14 day in vitro stimulation of PBMC with Tau peptides
Type: cell-based, human
Details: for PD % of Total Responders / PD Total SFC / PD Total Responders: PD donors; for % of total response / Average SFC per responder / Frequency of response / Total SFC per epitope: across all cohorts; for Total Responders / Total SFC: all three cohorts (PD, HC > 50, HC < 35); for HC < 35 Total Responders / HC < 35 Total SFC: healthy controls < 35 years old
Source text: It was investigated whether T cell responses against Tau were detectable in the PD and healthy control (HC) donors. To this end, a panel of overlapping peptides spanning through the entire sequence of the Tau protein was synthesized. Since it is known that the Tau protein is post-translationally modified (mainly by phosphorylation), in several instances phosphorylated peptides were also synthesized. In all, 55 non-modified 16-mers overlapping by 8 and 14 modified 16-mers were synthesized.
PD: n=16, peptides tested 14-16 times; HC above 50 years old denominated as age-matched: n=11 (9-11 times) and HC below 35 years old (HC Young): n=13 (10-13 times).
These peptides were tested utilizing the following assay strategy. Briefly, PBMC from each donor were stimulated in vitro for 14 days as described (Hinz, D., 2015) with pools of 10 to 16 peptides each. After 14 days, the T cell cultures were assayed with IFNg/IL-5 dual ELISPOT assays […]. Positive pools were deconvoluted at day 17 to identify the specific individual epitopes recognized.

[1] = healthy controls > 50 years old

Sequence | PD/HC > 50 Ratio of % Responders | PD/HC > 50 Ratio of Response | HC > 50 % of Total Responders | HC > 50 Total SFC (HC > 50, dominant epitopes) | PD % of Total Responders | PD Total SFC (dominant epitopes) | % of total response | Average SFC per responder | Frequency of response | Total SFC per epitope | PD Total Responders | PD Total SFC | Total Responders | Total SFC | HC < 35 Total Responders | HC < 35 Total SFC | HC > 50 Total Responders [1] | HC > 50 Total SFC [1]
ATLADEVSASLAKQGL (listed as Homo sapiens) [Tau 16-mer, start 426] | 1.5 | 0.8 | 40.0% | 2803 SFC | 60.0% | 2193 SFC | 1.4% | 999 SFC | 9.4 | 4997 SFC |  |  |  |  |  |  |  | 
LATLADEVSASLAKQG (listed as Homo sapiens) [Tau 16-mer, start 425] | 0.3 | 0.5 | 75.0% | 2530 SFC | 25.0% | 1263 SFC | 1.1% | 948 SFC | 7.5 | 3793 SFC |  |  |  |  |  |  |  | 
DFKDRVQSKIGZLDNI | 2.0 | 3.7 | 28.6% | 1220 SFC | 57.1% | 4490 SFC | 1.9% | 972 SFC | 13.2 | 6807 SFC | 4 | 4490 SFC | 7 | 6807 SFC | 1 | 1097 SFC | 2 | 1220 SFC
PMPDLKNVKSKIGSTE (PMPDLKNVKSKIG[pS]TE; listed as Homo sapiens) [Tau 16-mer, start 249] | 1.7 | 2.2 | 30.0% | 6084 SFC | 50.0% | 13363 SFC | 5.7% | 1982 SFC | 18.9 | 19815 SFC | 5 | 13363 SFC | 10 | 19815 SFC | 2 | 368 SFC | 3 | 6084 SFC
IKHVPGGGSVQIVYKP (listed as Homo sapiens) [Tau 16-mer, start 297] | 1.3 | 11.6 | 33.3% | 737 SFC | 44.4% | 8565 SFC | 3.4% | 1319 SFC | 17.0 | 11875 SFC |  |  |  |  |  |  |  | 
DFKDRVQSKIGSLDNI (DFKDRVQSKIG[pS]LDNI; listed as Homo sapiens) [Tau 16-mer, start 345] | 0.7 | 0.6 | 60.0% | 4330 SFC | 40.0% | 2397 SFC | 1.9% | 1345 SFC | 9.4 | 6727 SFC | 2 | 2397 SFC | 5 | 6727 SFC | 0 | 0 SFC | 3 | 4330 SFC
KVAVVRTPPKSPSSAK (KVAVVR[pT]PPKSPSSAK; listed as Homo sapiens) | inf | inf | 0.0% | 0 SFC | 100.0% | 4556 SFC | 1.3% | 911 SFC | 9.4 | 4556 SFC | 5 | 4556 SFC | 5 | 4556 SFC | 0 | 0 SFC | 0 | 0 SFC
PAPKTPPSSGEPPKSG (PAPK[pT]PPSSGEPPKSG; listed as Homo sapiens) |  |  |  |  |  |  |  |  |  |  | 0 | 0 SFC | 1 | 107 SFC | 0 | 0 SFC | 1 | 107 SFC
GKVQIINKKLDLSNVQ (listed as Homo sapiens) [Tau 16-mer, start 273] | 2.5 | 3.3 | 20.0% | 5560 SFC | 50.0% | 18290 SFC | 8.6% | 1511 SFC | 37.7 | 30211 SFC |  |  |  |  |  |  |  | 
HVTQARMVSKSKDGTG (listed as Homo sapiens) | 5.0 | 66.9 | 10.0% | 133 SFC | 50.0% | 8916 SFC | 4.2% | 1468 SFC | 18.9 | 14677 SFC |  |  |  |  |  |  |  | 
DRSGYSSPGZPGXPGS | 5.0 | 7.3 | 11.1% | 187 SFC | 55.6% | 1360 SFC | 1.6% | 611 SFC | 17.0 | 5499 SFC | 5 | 1360 SFC | 9 | 5499 SFC | 3 | 3952 SFC | 1 | 187 SFC
SLEDEAAGHVTQARMV (listed as Homo sapiens) [Tau 16-mer, start 113] | 2.0 | 11 | 33.3% | 640 SFC | 66.7% | 7058 SFC | 2.2% | 1283 SFC | 11.3 | 7698 SFC |  |  |  |  |  |  |  | 
GQKGQANATRIPAKTP (listed as Homo sapiens) [Tau 16-mer, start 161] | 4.0 | 3.5 | 16.7% | 1770 SFC | 66.7% | 6247 SFC | 2.3% | 1361 SFC | 11.3 | 8164 SFC |  |  |  |  |  |  |  | 
KKIETHKLTFRENAKA (listed as Homo sapiens) [Tau 16-mer, start 369] | 1.4 | 1.4 | 31.3% | 5898 SFC | 43.8% | 8190 SFC | 5.4% | 1174 SFC | 30.2 | 18790 SFC |  |  |  |  |  |  |  | 
SNVSSTGSIDMVDSPQ (listed as Homo sapiens) [Tau 16-mer, start 409] |  |  |  |  |  |  |  |  |  |  | 2 | 710 SFC | 3 | 1767 SFC | 0 | 0 SFC | 1 | 1057 SFC
TPPTREPKKVAVVRXP |  |  |  |  |  |  |  |  |  |  | 4 | 1813 SFC | 7 | 2210 SFC | 3 | 397 SFC | 0 | 0 SFC
DRSGYSSPGSPGTPGS (DRSGYSSPG[pS]PG[pT]PGS; listed as Homo sapiens) [Tau 16-mer, start 193] |  |  |  |  |  |  |  |  |  |  | 1 | 1175 SFC | 2 | 1332 SFC | 0 | 0 SFC | 1 | 157 SFC
ADGKTKIATPRGAAPP (listed as Homo sapiens) [Tau 16-mer, start 145] | 1.0 | 0.5 | 50.0% | 3577 SFC | 50.0% | 1633 SFC | 1.5% | 868 SFC | 11.3 | 5210 SFC |  |  |  |  |  |  |  | 
